For orientation: EC50 means the concentration at which the effect is half-maximal.

The target in the experiment is Dual specificity tyrosine-phosphorylation-regulated kinase 1A (Homo sapiens, UniProt Q13627). Description: Kinase Assay: The DYRK1A kinase assay was run using the Ser/Thr 18 peptide Z-lyte assay kit according to manufacturer's instructions (Life Technologies—a Division of Thermo-Fisher). This is a non-radioactive assay using fluorescence resonance energy transfer (FRET) between coumarin and fluorescein to detect kinase activity which is represented as a ratio of coumarin emission/fluorescein emission.Briefly, recombinant DYRK1A kinase, ATP and Ser/Thr peptide 18 were prepared in 1× Kinase buffer to final concentrations of 0.19 μg/mL, 30 μM, and 4 μM respectively. The mixture was allowed to incubate with the representative compounds for one hour at room temperature. All reactions were performed in duplicate. Unphosphorylated (“0% Control”) and phosphorylated (“100% control”) forms of Ser/Thr 18 served as control reactions. Additionally, an 11-point dose-response curve of Staurosporine (1 uM top) was run to serve as a positive compound control.
Take `O=C1CCc2cccc(c2)-c2cncc(c2)NC(=O)c2n[nH]c3ccc(cc23)-c2cncc(c2)CN1`: the EC50 was 9 nM.
Turning to `CN1CCCCN(C)c2nccc3[nH]c(nc23)-c2n[nH]c3ccc(cc23)-c2cncc(c2)C1`, the EC50 turned out to be 2 nM.
Then `O=C1CCc2cccc(c2)-c2cncc3[nH]c(nc23)-c2n[nH]c3ccc(cc23)-c2cncc(c2)N1`, with 10 nM; and `c1cc2cc(c1)-c1cncc3[nH]c(nc13)-c1n[nH]c3ccc(cc13)-c1cncc(c1)CNC2`, with 3 nM; and `O=C1COc2cccc(c2)-c2cncc3[nH]c(nc23)-c2n[nH]c3ccc(cc23)-c2cncc(c2)N1`, with 5 nM.

These data come from ChEMBL document CHEMBL5727930, “Indazole containing macrocycles and therapeutic uses thereof” (2020).
